Experimental data reported in PubChem BioAssay (NCI).
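All cell lines were grown in 96-well plates and treated with compound for 48 hours. GI50 = concentration required for 50% inhibition of growth. TGI is the concentration that stops growth completely.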

Columns and labels:
Test in all cases: NCI-60 cell line screen, 48 h
SNB-19 CNS = test system: SNB-19 CNS
SK-MEL-5 melanoma = test system: SK-MEL-5 melanoma
A549 NSCLC = test system: A549 NSCLC
A498 renal = test system: A498 renal
SW-620 colon = test system: SW-620 colon
U251 CNS = test system: U251 CNS
OVCAR-5 ovarian = test system: OVCAR-5 ovarian
RXF 393 renal = test system: RXF 393 renal
CCRF-CEM leukemia = test system: CCRF-CEM leukemia
LOX IMVI melanoma = test system: LOX IMVI melanoma
NCI-H23 lung = test system: NCI-H23 lung
KM12 colon = test system: KM12 colon
ACHN renal = test system: ACHN renal
OVCAR-3 ovarian = test system: OVCAR-3 ovarian
HS 578T breast = test system: HS 578T breast
PC-3 prostate = test system: PC-3 prostate
DU-145 prostate = test system: DU-145 prostate
TK-10 renal = test system: TK-10 renal
SNB-75 CNS = test system: SNB-75 CNS
M14 melanoma = test system: M14 melanoma
SF-268 CNS = test system: SF-268 CNS
T-47D breast = test system: T-47D breast
SK-MEL-2 melanoma = test system: SK-MEL-2 melanoma
SR leukemia = test system: SR leukemia
EKVX NSCLC = test system: EKVX NSCLC
MDA-MB-231 breast = test system: MDA-MB-231 breast
UACC-62 melanoma = test system: UACC-62 melanoma

Compound: COc1ccc2c(CCC(c3ccccc3)c3ccccc3)c3[n+](cc2c1OC)CCc1cc2c(cc1-3)OCO2
- TGI (SNB-19 CNS): 1.74 µM
- GI50 (SK-MEL-5 melanoma): 0.0383 µM
- TGI (SK-MEL-5 melanoma): 0.214 µM
- GI50 (A549 NSCLC): 1.55 µM
- TGI (A549 NSCLC): 5.07 µM
- GI50 (A498 renal): 1.31 µM
- TGI (A498 renal): 6.8 µM
- GI50 (SW-620 colon): 0.315 µM
- TGI (SW-620 colon): 1.63 µM
- GI50 (U251 CNS): 0.172 µM
- TGI (U251 CNS): 1.38 µM
- GI50 (OVCAR-5 ovarian): 1.76 µM
- TGI (OVCAR-5 ovarian): 5.95 µM
- GI50 (RXF 393 renal): 0.686 µM
- TGI (RXF 393 renal): 2.2 µM
- GI50 (CCRF-CEM leukemia): < 0.0398 µM
- TGI (CCRF-CEM leukemia): 2.71 µM
- GI50 (LOX IMVI melanoma): 0.255 µM
- TGI (LOX IMVI melanoma): 1.36 µM
- GI50 (NCI-H23 lung): 0.242 µM
- TGI (NCI-H23 lung): 1.94 µM
- GI50 (KM12 colon): 0.16 µM
- TGI (KM12 colon): 1.19 µM
- GI50 (ACHN renal): 1.29 µM
- TGI (ACHN renal): 5.22 µM
- GI50 (OVCAR-3 ovarian): 0.028 µM
- TGI (OVCAR-3 ovarian): 1.3 µM
- GI50 (HS 578T breast): 0.799 µM
- TGI (HS 578T breast): 3.82 µM
- GI50 (PC-3 prostate): 0.112 µM
- TGI (PC-3 prostate): 0.837 µM
- GI50 (DU-145 prostate): 0.348 µM
- TGI (DU-145 prostate): 1.8 µM
- GI50 (TK-10 renal): 0.339 µM
- TGI (TK-10 renal): 1.58 µM
- GI50 (SNB-75 CNS): 0.266 µM
- TGI (SNB-75 CNS): 1.84 µM
- GI50 (M14 melanoma): 0.296 µM
- TGI (M14 melanoma): 1.74 µM
- GI50 (SF-268 CNS): 0.519 µM
- TGI (SF-268 CNS): 1.98 µM
- GI50 (T-47D breast): 0.241 µM
- TGI (T-47D breast): 1.76 µM
- GI50 (SK-MEL-2 melanoma): 0.0705 µM
- TGI (SK-MEL-2 melanoma): 1.04 µM
- GI50 (SR leukemia): 0.373 µM
- TGI (SR leukemia): 3.24 µM
- GI50 (EKVX NSCLC): 0.492 µM
- TGI (EKVX NSCLC): 7.25 µM
- GI50 (MDA-MB-231 breast): 1.1 µM
- TGI (MDA-MB-231 breast): 3.48 µM
- GI50 (UACC-62 melanoma): 0.153 µM
- TGI (UACC-62 melanoma): 1.76 µM
